Source: ChEMBL document CHEMBL5518228, “DNA Interaction and Cleavage Modes of Anthraquinone-Fused Enediynes: A Study on Tiancimycins, Yangpumicins, and Their Semisynthetic Analogues” (J Med Chem, 2024)
Activity calls are given as the source filed them. No cut-off for these calls is given here.

Columns and labels:
Jurkat = assay: Cytotoxicity against human Jurkat cells incubated for 72 hrs by CCK-8 assay; type: functional, cell-based
A549 = assay: Cytotoxicity against human A549 cells incubated for 72 hrs by CCK-8 assay; type: functional, cell-based; settings: A549, 72 h
Caco-2 = assay: Cytotoxicity against human Caco-2 cells incubated for 72 hrs by CCK-8 assay; type: functional, cell-based; settings: Caco-2, 72 h
[1] = Cytotoxicity against human KPL-4 cells incubated for 72 hrs by CCK-8 assay; type: functional, cell-based; settings: KPL4, 72 h
[2] = Cytotoxicity against human NCM460 cells incubated for 72 hrs by CCK-8 assay; type: toxicity, cell-based
[3] = Cytotoxicity against human HUVEC cells incubated for 72 hrs by CCK-8 assay; type: toxicity, cell-based
Supercoiled DNA [4] = assay: Induction of supercoiled pBR322 DNA (unknown origin) cleavage assessed as relaxation of supercoiled plasmid incubated for 1 hr in presence of DTT by SYBR I Green staining based agarose gel electrophoresis analysis; type: nucleic-acid assay
KPL-4 [5] = assay: Antitumor activity against human KPL-4 cells xenografted with BALB/c mouse assessed as reduction in tumor mass at 0.05 mg/kg,iv administrated once per week for 2 weeks; type: functional, organism-based
KPL-4 [6] = assay: Antitumor activity against human KPL-4 cells xenografted with BALB/c mouse assessed as reduction in tumor mass at 0.2 mg/kg,iv administrated once per week for 2 weeks; type: functional, organism-based
[7] = Toxicity in BALB/c mouse xenografted with human KPL-4 cells assessed as body weight loss at 0.2 mg/kg,iv administrated once per week for 2 weeks; type: organism-based; settings: in vivo, 336 h
[8] = Toxicity in BALB/c mouse xenografted with human KPL-4 cells assessed as pathological damage in heart at 0.05 mg/kg,iv administrated once per week for 2 weeks by H and E staining based analysis; type: organism-based; settings: in vivo, 336 h
[9] = Toxicity in BALB/c mouse xenografted with human KPL-4 cells assessed as pathological damage in heart at 0.2 mg/kg,iv administrated once per week for 2 weeks by H and E staining based analysis; type: organism-based; settings: in vivo, 336 h
[10] = Toxicity in BALB/c mouse xenografted with human KPL-4 cells assessed as pathological damage in liver at 0.05 mg/kg,iv administrated once per week for 2 weeks by H and E staining based analysis; type: organism-based; settings: in vivo, 336 h
[11] = Toxicity in BALB/c mouse xenografted with human KPL-4 cells assessed as pathological damage in liver at 0.2 mg/kg,iv administrated once per week for 2 weeks by H and E staining based analysis; type: organism-based; settings: in vivo, 336 h
[12] = Toxicity in BALB/c mouse xenografted with human KPL-4 cells assessed as pathological damage in lung at 0.05 mg/kg,iv administrated once per week for 2 weeks by H and E staining based analysis; type: organism-based; settings: in vivo, 336 h
[13] = Toxicity in BALB/c mouse xenografted with human KPL-4 cells assessed as pathological damage in lung at 0.2 mg/kg,iv administrated once per week for 2 weeks by H and E staining based analysis; type: organism-based; settings: in vivo, 336 h
[14] = Toxicity in BALB/c mouse xenografted with human KPL-4 cells assessed as pathological damage in spleen at 0.05 mg/kg,iv administrated once per week for 2 weeks by H and E staining based analysis; type: organism-based; settings: in vivo, 336 h
[15] = Toxicity in BALB/c mouse xenografted with human KPL-4 cells assessed as pathological damage in spleen at 0.2 mg/kg,iv administrated once per week for 2 weeks by H and E staining based analysis; type: organism-based; settings: in vivo, 336 h
[16] = Toxicity in BALB/c mouse xenografted with human KPL-4 cells assessed as pathological damage in kidney at 0.05 mg/kg,iv administrated once per week for 2 weeks by H and E staining based analysis; type: organism-based; settings: in vivo, 336 h
[17] = Toxicity in BALB/c mouse xenografted with human KPL-4 cells assessed as pathological damage in kidney at 0.2 mg/kg,iv administrated once per week for 2 weeks by H and E staining based analysis; type: organism-based; settings: in vivo, 336 h
Supercoiled DNA [18] = assay: Induction of supercoiled pBR322 DNA (unknown origin) cleavage at 50 uM incubated for 1 hr in presence of NADPH by agarose gel electrophoresis analysis; type: nucleic-acid assay
Supercoiled DNA [19] = assay: Induction of supercoiled pBR322 DNA (unknown origin) cleavage at 50 uM incubated for 1 hr in presence of DTT by agarose gel electrophoresis analysis; type: nucleic-acid assay
Supercoiled DNA [20] = assay: Induction of supercoiled pBR322 DNA (unknown origin) cleavage at 50 uM incubated for 1 hr in presence of GSH by agarose gel electrophoresis analysis; type: nucleic-acid assay
Supercoiled DNA [21] = assay: Induction of supercoiled pBR322 DNA (unknown origin) cleavage at 50 uM incubated for 1 hr under pH 5.5 to 6.5 condition by agarose gel electrophoresis analysis; type: nucleic-acid assay
Supercoiled DNA [22] = assay: Induction of supercoiled pBR322 DNA (unknown origin) cleavage at 50 uM incubated for 1 hr under pH 5.5 to 9.5 condition by agarose gel electrophoresis analysis; type: nucleic-acid assay
Supercoiled DNA [23] = assay: Induction of supercoiled pBR322 DNA (unknown origin) cleavage at 50 uM incubated for 1 hr in presence of catalase under pH 7.4 condition by agarose gel electrophoresis analysis; type: nucleic-acid assay
Supercoiled DNA [24] = assay: Induction of supercoiled pBR322 DNA (unknown origin) cleavage at 50 uM incubated for 1 hr in presence of DTT under pH 7.4 condition by agarose gel electrophoresis analysis; type: nucleic-acid assay
Supercoiled DNA [25] = assay: Induction of supercoiled pBR322 DNA (unknown origin) cleavage at 50 uM incubated for 1 hr in presence of pyridine under pH 7.4 condition by agarose gel electrophoresis analysis; type: nucleic-acid assay
Supercoiled DNA [26] = assay: Induction of supercoiled pBR322 DNA (unknown origin) cleavage at 50 uM incubated for 1 hr in presence of adriamycin by agarose gel electrophoresis analysis; type: nucleic-acid assay
Supercoiled DNA [27] = assay: Induction of supercoiled pBR322 DNA (unknown origin) cleavage at 50 uM incubated for 1 hr in presence of actinomycin D by agarose gel electrophoresis analysis; type: nucleic-acid assay
Supercoiled DNA [28] = assay: Induction of supercoiled pBR322 DNA (unknown origin) cleavage at 50 uM incubated for 1 hr in presence of bleomycin by agarose gel electrophoresis analysis; type: nucleic-acid assay
Supercoiled DNA [29] = assay: Induction of supercoiled pBR322 DNA (unknown origin) cleavage at 50 uM incubated for 1 hr in presence of bleomycin and ferrous ion by agarose gel electrophoresis analysis; type: nucleic-acid assay
DNA [30] = assay: Induction of duplex DNA (unknown origin) cleavage assessed as DNA cleaved fragments at AT-rich region at 1 mM incubated for 6 hr in presence of DTT by agarose gel electrophoresis analysis; type: nucleic-acid assay
Calf thymus DNA [31] = assay: Binding affinity to calf thymus DNA assessed as change in gibbs free energy in presence of ethidium bromide by competitive binding based fluorescence spectroscopic analysis; type: nucleic-acid assay; settings: Bos taurus
Calf thymus DNA [32] = assay: Binding affinity to calf thymus DNA assessed as DNA insertion by measuring change in gibbs free energy by fluorescence spectroscopic analysis; type: nucleic-acid assay; settings: Bos taurus
Calf thymus DNA [33] = assay: Binding affinity to calf thymus DNA assessed as DNA insertion by measuring change in gibbs free energy in presence of triggered form of compound by fluorescence spectroscopic analysis; type: nucleic-acid assay; settings: Bos taurus
[34] = Toxicity in BALB/c mouse xenografted with human KPL-4 cells assessed as body weight loss at 0.05 mg/kg,iv administrated once per week for 2 weeks; type: organism-based; settings: in vivo, 336 h
Supercoiled DNA [35] = assay: Induction of supercoiled pBR322 DNA (unknown origin) cleavage at 100 nM incubated for 1 hr in presence of NADPH by agarose gel electrophoresis analysis; type: nucleic-acid assay
Supercoiled DNA [36] = assay: Induction of supercoiled pBR322 DNA (unknown origin) cleavage at 100 nM incubated for 1 hr in presence of DTT by agarose gel electrophoresis analysis; type: nucleic-acid assay
Supercoiled DNA [37] = assay: Induction of supercoiled pBR322 DNA (unknown origin) cleavage at 0.5 uM incubated for 1 hr under pH 5.5 to 9.5 condition by agarose gel electrophoresis analysis; type: nucleic-acid assay
Supercoiled DNA [38] = assay: Induction of supercoiled pBR322 DNA (unknown origin) cleavage at 0.5 uM incubated for 1 hr in presence of pyridine under pH 7.4 condition by agarose gel electrophoresis analysis; type: nucleic-acid assay
Supercoiled DNA [39] = assay: Induction of supercoiled pBR322 DNA (unknown origin) cleavage at 0.5 uM incubated for 1 hr in presence of catalase under pH 7.4 condition by agarose gel electrophoresis analysis; type: nucleic-acid assay
Supercoiled DNA [40] = assay: Induction of supercoiled pBR322 DNA (unknown origin) cleavage at 0.5 uM incubated for 1 hr in presence of methanol under pH 7.4 condition by agarose gel electrophoresis analysis; type: nucleic-acid assay
Supercoiled DNA [41] = assay: Induction of supercoiled pBR322 DNA (unknown origin) cleavage at 0.5 uM incubated for 1 hr in presence of ethanol under pH 7.4 condition by agarose gel electrophoresis analysis; type: nucleic-acid assay
Supercoiled DNA [42] = assay: Induction of supercoiled pBR322 DNA (unknown origin) cleavage at 0.5 uM incubated for 1 hr in presence of mannitol under pH 7.4 condition by agarose gel electrophoresis analysis; type: nucleic-acid assay
Supercoiled DNA [43] = assay: Induction of supercoiled pBR322 DNA (unknown origin) cleavage at 100 nM incubated for 1 hr in presence of adriamycin by agarose gel electrophoresis analysis; type: nucleic-acid assay
Supercoiled DNA [44] = assay: Induction of supercoiled pBR322 DNA (unknown origin) cleavage at 100 nM incubated for 1 hr in presence of actinomycin D by agarose gel electrophoresis analysis; type: nucleic-acid assay
Supercoiled DNA [45] = assay: Induction of supercoiled pBR322 DNA (unknown origin) cleavage at 100 nM incubated for 1 hr in presence of 10 uM of adriamycin by agarose gel electrophoresis analysis; type: nucleic-acid assay
Supercoiled DNA [46] = assay: Induction of supercoiled pBR322 DNA (unknown origin) cleavage at 100 nM incubated for 1 hr in presence of 10 uM of actinomycin D by agarose gel electrophoresis analysis; type: nucleic-acid assay
Supercoiled DNA [47] = assay: Induction of supercoiled pBR322 DNA (unknown origin) cleavage at 100 nM incubated for 1 hr in presence of bleomycin by agarose gel electrophoresis analysis; type: nucleic-acid assay
Supercoiled DNA [48] = assay: Induction of supercoiled pBR322 DNA (unknown origin) cleavage at 100 nM incubated for 1 hr in presence of bleomycin and ferrous ion by agarose gel electrophoresis analysis; type: nucleic-acid assay
DNA [49] = assay: Induction of duplex DNA (unknown origin) cleavage assessed as DNA cleaved fragments at AT-rich region at 100 uM incubated for 6 hr in presence of DTT by agarose gel electrophoresis analysis; type: nucleic-acid assay

COc1ccc2c(c1OC)C(=O)c1c3c(cc(O)c1C2=O)[C@@]12O[C@@]1([C@@H](C)O)[C@H](C#C/C=C\C#C[C@H]2O)N3
IC50 (Jurkat): 0.1 nM
IC50 (A549): 1.3 nM
IC50 (Caco-2): 37.9 nM
IC50 [1]: 0.1 nM
IC50 at 72 h [2]: 6 nM
IC50 at 72 h [3]: 6.8 nM
EC50 (Supercoiled DNA [4]): 17.3 nM
Activity (KPL-4 [5]): Active
Activity (KPL-4 [6]): Active
Activity [7]: Non-Toxic
Activity [8]: Non-Toxic
Activity [9]: Non-Toxic
Activity [10]: Non-Toxic
Activity [11]: Non-Toxic
Activity [12]: Non-Toxic
Activity [13]: Non-Toxic
Activity [14]: Non-Toxic
Activity [15]: Non-Toxic
Activity [16]: Non-Toxic
Activity [17]: Non-Toxic
Activity (Supercoiled DNA [18]): inactive
Activity (Supercoiled DNA [19]): Active
Activity (Supercoiled DNA [20]): inactive
Activity (Supercoiled DNA [21]): inactive
Activity (Supercoiled DNA [22]): Active
Activity (Supercoiled DNA [23]): inactive
Activity (Supercoiled DNA [24]): inactive
Activity (Supercoiled DNA [25]): inactive
Activity (Supercoiled DNA [26]): inactive
Activity (Supercoiled DNA [27]): inactive
Activity (Supercoiled DNA [28]): Active
Activity (Supercoiled DNA [29]): Active
Activity (DNA [30]): inactive
deltaG (Calf thymus DNA [31]): -7.98 kcal/mol
deltaG (Calf thymus DNA [32]): -23.8 kcal/mol
deltaG (Calf thymus DNA [33]): -18.1 kcal/mol

COc1ccc2c(c1O)C(=O)c1c3c(cc(O)c1C2=O)[C@@]12O[C@@]1([C@@H](C)O)[C@H](C#C/C=C\C#C[C@H]2O)N3
IC50 (Jurkat): 0.05 nM
IC50 (A549): 0.04 nM
IC50 (Caco-2): 0.4 nM
IC50 [1]: 0.02 nM
IC50 at 72 h [2]: 0.2 nM
IC50 at 72 h [3]: 0.2 nM
EC50 (Supercoiled DNA [4]): 38.9 nM
Activity [34]: Toxic
Activity (Supercoiled DNA [35]): inactive
Activity (Supercoiled DNA [36]): Active
Activity (Supercoiled DNA [37]): Active
Activity (Supercoiled DNA [38]): Active
Activity (Supercoiled DNA [39]): Active
Activity (Supercoiled DNA [40]): Active
Activity (Supercoiled DNA [41]): Active
Activity (Supercoiled DNA [42]): Active
Activity (Supercoiled DNA [43]): inactive
Activity (Supercoiled DNA [44]): inactive
Activity (Supercoiled DNA [45]): inactive
Activity (Supercoiled DNA [46]): inactive
Activity (Supercoiled DNA [47]): Active
Activity (Supercoiled DNA [48]): Active
Activity (DNA [49]): Active
deltaG (Calf thymus DNA [31]): -8.26 kcal/mol
deltaG (Calf thymus DNA [32]): -20.5 kcal/mol
deltaG (Calf thymus DNA [33]): -17.8 kcal/mol
